# Reference: ChEMBL document CHEMBL4828714, “Mutasynthesis of Antibacterial Halogenated Actinomycin Analogues” (J Nat Prod, 2021)
# Key:
# [1] = system: MCF7; assay: Cytotoxicity against human MCF7 cells assessed as growth inhibition incubated for 68 hrs by MTT assay; type: functional, cell-based; conditions: MCF7, 68 h
# [2] = system: RKO; assay: Cytotoxicity against human RKO cells assessed as growth inhibition incubated for 68 hrs by MTT assay; type: functional, cell-based
# [3] = system: Enterococcus faecalis; assay: Antimicrobial activity against Enterococcus faecalis ATCC 29212 assessed as inhibition of bacterial growth incubated for 16 to 18 hrs by broth micro dilution technique; type: functional; conditions: time 16-18 hrs
# [4] = system: Staphylococcus aureus; assay: Antimicrobial activity against Staphylococcus aureus Sau 1862 assessed as inhibition of bacterial growth incubated for 16 to 18 hrs by broth micro dilution technique; type: functional; conditions: time 16-18 hrs
# [5] = system: L02; assay: Cytotoxicity against human L02 cells assessed as growth inhibition incubated for 68 hrs by MTT assay; type: cell-based; conditions: L02, 68 h
# [6] = system: Bacillus thuringiensis; assay: Antimicrobial activity against Bacillus thuringiensis BT01 assessed as inhibition of bacterial growth incubated for 16 to 18 hrs by broth micro dilution technique; type: functional; conditions: time 16-18 hrs
# [7] = system: Staphylococcus aureus; assay: Antimicrobial activity against Staphylococcus aureus Sau 745524 assessed as inhibition of bacterial growth incubated for 16 to 18 hrs by broth micro dilution technique; type: functional; conditions: time 16-18 hrs
# [8] = system: Staphylococcus aureus; assay: Antimicrobial activity against Staphylococcus aureus Sau 16162 assessed as inhibition of bacterial growth incubated for 16 to 18 hrs by broth micro dilution technique; type: functional; conditions: time 16-18 hrs
# [9] = system: Candida albicans; assay: Antimicrobial activity against Candida albicans assessed as inhibition of bacterial growth incubated for 16 to 18 hrs by broth micro dilution technique; type: functional; conditions: time 16-18 hrs
# [10] = system: HL-60; assay: Cytotoxicity against human HL-60 cells assessed as growth inhibition incubated for 68 hrs by MTT assay; type: functional, cell-based; conditions: HL-60, 68 h
# [11] = system: BEAS-2B; assay: Cytotoxicity against human BEAS-2B cells assessed as growth inhibition incubated for 68 hrs by MTT assay; type: cell-based
# [12] = system: Staphylococcus aureus; assay: Antimicrobial activity against Staphylococcus aureus ATCC 29213 assessed as inhibition of bacterial growth incubated for 16 to 18 hrs by broth micro dilution technique; type: functional; conditions: time 16-18 hrs
# [13] = system: Micrococcus luteus; assay: Antimicrobial activity against Micrococcus luteus ML01 assessed as inhibition of bacterial growth incubated for 16 to 18 hrs by broth micro dilution technique; type: functional; conditions: time 16-18 hrs
# [14] = system: Staphylococcus aureus; assay: Antimicrobial activity against Staphylococcus aureus Sau 991 assessed as inhibition of bacterial growth incubated for 16 to 18 hrs by broth micro dilution technique; type: functional; conditions: time 16-18 hrs
# [15] = system: Staphylococcus aureus; assay: Antimicrobial activity against Staphylococcus aureus Sau 718306 assessed as inhibition of bacterial growth incubated for 16 to 18 hrs by broth micro dilution technique; type: functional; conditions: time 16-18 hrs
# [16] = system: HepG2; assay: Cytotoxicity against human HepG2 cells assessed as growth inhibition incubated for 68 hrs by MTT assay; type: functional, cell-based; conditions: HepG2, 68 h
# [17] = system: Staphylococcus aureus; assay: Antimicrobial activity against Staphylococcus aureus CCAM 3090 assessed as inhibition of bacterial growth incubated for 16 to 18 hrs by broth micro dilution technique; type: functional; conditions: time 16-18 hrs
# [18] = system: A549; assay: Cytotoxicity against human A549 cells assessed as growth inhibition incubated for 68 hrs by MTT assay; type: functional, cell-based; conditions: A549, 68 h
# [19] = system: Staphylococcus aureus; assay: Antimicrobial activity against Staphylococcus aureus Sau 6917 assessed as inhibition of bacterial growth incubated for 16 to 18 hrs by broth micro dilution technique; type: functional; conditions: time 16-18 hrs
# [20] = system: HeLa; assay: Cytotoxicity against human HeLa cells assessed as growth inhibition incubated for 68 hrs by MTT assay; type: functional, cell-based
# [21] = system: Enterococcus faecium; assay: Antimicrobial activity against Enterococcus faecium ATCC 35682 assessed as inhibition of bacterial growth incubated for 16 to 18 hrs by broth micro dilution technique; type: functional; conditions: time 16-18 hrs
SMILES,IC50 [1] [µM],IC50 [2] [µM],MIC [3] [µg/mL],MIC [4] [µg/mL],IC50 [5] [µM],MIC [6] [µg/mL],MIC [7] [µg/mL],MIC [8] [µg/mL],MIC [9] [µg/mL],IC50 [10] [nM],IC50 [11] [µM],MIC [12] [µg/mL],MIC [13] [µg/mL],MIC [14] [µg/mL],MIC [15] [µg/mL],IC50 [16] [µM],MIC [17] [µg/mL],IC50 [18] [µM],MIC [19] [µg/mL],MIC [21] [µg/mL],other results
CC(C)[C@H]1C(=O)O[C@H](C)[C@H](NC(=O)c2c3nc4c(C(=O)N[C@@H]5C(=O)N[C@H](C(C)C)C(=O)N6CCC[C@H]6C(=O)N(C)CC(=O)N(C)[C@@H](C(C)C)C(=O)O[C@@H]5C)ccc(F)c4oc-3c(F)c(=O)c2N)C(=O)N[C@H](C(C)C)C(=O)N2CCC[C@H]2C(=O)N(C)CC(=O)N1C,17.1,> 50,64,32,> 50,16,32,32,64,> 50000,> 50,32,2,32,32,> 50,32,> 50,32,4,IC50 [20]: > 50 µM
CC(C)[C@H]1C(=O)O[C@H](C)[C@H](NC(=O)c2c3nc4c(C(=O)N[C@@H]5C(=O)N[C@H](C(C)C)C(=O)N6CCC[C@H]6C(=O)N(C)CC(=O)N(C)[C@@H](C(C)C)C(=O)O[C@@H]5C)cccc4oc-3c(I)c(=O)c2N)C(=O)N[C@H](C(C)C)C(=O)N2CCC[C@H]2C(=O)N(C)CC(=O)N1C,25.7,3.3,4,4,20.9,1,2,8,2,400,12.4,4,0.06,4,2,3.3,4,34,4,2,IC50 [20]: 10 µM
CC(C)[C@H]1C(=O)O[C@H](C)[C@H](NC(=O)c2c3nc4c(C(=O)N[C@@H]5C(=O)N[C@H](C(C)C)C(=O)N6CCC[C@H]6C(=O)N(CO)CC(=O)N(C)[C@@H](C(C)C)C(=O)O[C@@H]5C)ccc(Br)c4oc-3c(Br)c(=O)c2N)C(=O)N[C@H](C(C)C)C(=O)N2CCC[C@H]2C(=O)N(C)CC(=O)N1C,12.8,24.6,32,32,13.3,4,32,32,8,> 50000,5.8,32,2,32,16,> 50,32,37.8,32,4,IC50 [20]: > 50 µM
CN[C@H](CC(C)C)C(=O)N[C@H]1C(=O)N[C@@H](CC(N)=O)C(=O)N[C@H]2C(=O)N[C@H]3C(=O)N[C@H](C(=O)N[C@H](C(=O)O)c4cc(O)cc(O)c4-c4cc3ccc4O)[C@H](O)c3ccc(c(Cl)c3)Oc3cc2cc(c3O[C@@H]2O[C@H](CO)[C@@H](O)[C@H](O)[C@H]2O[C@H]2C[C@](C)(N)[C@H](O)[C@H](C)O2)Oc2ccc(cc2Cl)[C@H]1O [VANCOMYCIN],,,1,,,4,,64,0.25,,,,0.25,,,,0.25,,,> 64,
COc1c2oc3c(OC)ccc(C(=O)N[C@@H]4C(=O)N[C@H](C(C)C)C(=O)N5CCC[C@H]5C(=O)N(C)CC(=O)N(C)[C@@H](C(C)C)C(=O)O[C@@H]4C)c3nc-2c(C(=O)N[C@@H]2C(=O)N[C@H](C(C)C)C(=O)N3CCC[C@H]3C(=O)N(C)CC(=O)N(C)[C@@H](C(C)C)C(=O)O[C@@H]2C)c(N)c1=O,4.1,1.7,8,2,3.9,4,2,8,16,200,2.7,2,0.5,2,2,4,2,18.5,2,8,IC50 [20]: 4.3 µM
CC(C)[C@H]1C(=O)O[C@H](C)[C@H](NC(=O)c2c3nc4c(C(=O)N[C@@H]5C(=O)N[C@H](C(C)C)C(=O)N6CCC[C@H]6C(=O)N(C)CC(=O)N(C)[C@@H](C(C)C)C(=O)O[C@@H]5C)ccc(I)c4oc-3cc(=O)c2N)C(=O)N[C@H](C(C)C)C(=O)N2CCC[C@H]2C(=O)N(C)CC(=O)N1C,2,0.1,2,2,1.7,0.25,0.5,4,0.5,70,0.5,1,0.06,1,1,0.1,1,9,1,0.5,IC50 [20]: 4.4 µM
CC(C)[C@H]1C(=O)O[C@H](C)[C@H](NC(=O)c2c3nc4c(C(=O)N[C@@H]5C(=O)N[C@H](C(C)C)C(=O)N6CCC[C@H]6C(=O)N(C)CC(=O)N(C)[C@@H](C(C)C)C(=O)O[C@@H]5C)cccc4oc-3c(Cl)c(=O)c2N)C(=O)N[C@H](C(C)C)C(=O)N2CCC[C@H]2C(=O)N(C)CC(=O)N1C,,,16,8,,4,8,32,8,,,16,0.25,8,8,,16,,16,2,
CC1(C)S[C@@H]2[C@H](NC(=O)[C@H](N)c3ccccc3)C(=O)N2[C@H]1C(=O)O [AMPICILLIN],,,32,8,,2,2,64,0.13,,,1,0.13,,,,> 64,,8,> 64,
